Assays:
Type in all cases: cell-based, human
[1] = system: MB231Br (breast cancer metastasis to brain); experiment: Drug screening of MB231Br tumor foci on OBSCs; conditions: MB231BR on OBSCs
[2] = system: LN229 (established GBM line); experiment: Drug screening of LN229 tumor foci on OBSCs
Protocol: (§1) Tumor cells (0.17 μL, 25,000 cells) were seeded onto OBSCs 2h after slicing, with one tumor seeded in the center of each hemisphere for a total of two tumor foci per OBSC. BSM was changed 24h after slicing. Fluorescence images were taken 0 h, 24 h, and 96 h post-seeding for normalization of tumor size. Bioluminescence readouts were also taken at 0 h, 24 h, and 96 h post seeding for assessment of cell viability. Luciferin was added underneath the culture insert and allowed to incubate for 10 min before bioluminescence measurement on an AMI optical imaging system.
(§2) Tumor cells were seeded onto OBSCs 2h after slicing as described above. One day after tumor seeding, six concentrations of each drug were diluted in the media underneath each culture insert, or XRad was applied using an X-Rad 320 Precision X-ray machine (n = 4 tumor foci per concentration; n ≥ 24 tumor foci per drug per cell line). Three days after treatment, the bioluminescence of live tumor cells was measured using an AMI optical imager (Spectral Instruments) and dose-response curves were generated. Tumor survival was normalized to day one tumor fluorescence and compared to an untreated control group.
(§3) Several weighted parameters were factored into an overall drug sensitivity score.
(§4) For DSS parameters 1–6, therapeutic windows were calculated by comparing OBSC toxicity and tumor response at the doses where tumor kill passed through the DSS parameter (Table S1 and S3). For DSS parameter 7, the therapeutic window was calculated by comparing the slopes through the tumor EC50 and the OBSC tox EC50. For DSS parameter 8, the therapeutic window was calculated by comparing the areas under tumor kill and OBSC tox curves. Normalized therapeutic window ratios for DSS parameters 1–8 within each drug-tumor-OBSC interaction were calculated in the following manner: within each window, values ranged from +1 to −1, where values approaching +1 signify increasing tumor kill relative to normal tissue toxicity, and values approaching −1 indicate agents where tumors remained highly viable while toxicity to the normal OBSC tissue was elevated. DSS parameters 9–11 were determined based on the behavior of the tumor in response to the drug, as defined above.
(§5) All individually weighed parameters were added together to generate the DSS. Overall DSS from 0 to 100 signify increasing efficacy in tumor kill relative to OBSC toxicity, while scores from 0 to −100 describe scenarios in which tumors thrive more effectively than OBSCs for a given treatment. Dose-response values were calculated via linear interpolation of raw data, not from best-fit curve equations.

[3] = system: U373WT (wild-type established GBM line); experiment: Drug screening of U373WT tumor foci on OBSCs
Protocol: as §1, §2, §3, §4, §5

[4] = system: U373KO (RAD18 knockout of U373WT via CRISPR); experiment: Drug screening of U373KO tumor foci on OBSCs; conditions: U373 KO on OBSCs
Protocol: as §1, §2, §3, §4, §5

[5] = system: GBM8 (high-passage patient-derived GBM line); experiment: Drug screening of GBM8 tumor foci on OBSCs; conditions: GBM8 on OBSCs
Protocol: as §1, §2, §3, §4, §5

[6] = system: MS21 (low-passage patient-derived GBM line); experiment: Drug screening of MS21 tumor foci on OBSCs; conditions: MS21 on OBSCs
Protocol: as §1, §2, §3, §4, §5

[7] = system: PDIPG (low-passage pediatric patient-derived line); experiment: Drug screening of PDIPG tumor foci on OBSCs; conditions: PDIPG on OBSCs
Protocol: as §1, §2, §3, §4, §5

[8] = system: 7 cell lines (MB231Br, LN229, U373WT, U373KO, GBM8, MS21, PDIPG); experiment: Drug screening on OBSCs, summary over the panel of seven tumor lines; conditions: number of lines responding
Protocol: as §1, §2, §3, §4, §5

[9] = area under the dose-response curve, trapezoidal rule
[10] = dose required to kill 10% of the tumor
[11] = dose required to kill 25% of the tumor
[12] = dose required to kill 50% of the tumor
[13] = dose required to kill 75% of the tumor
[14] = dose required to kill 90% of the tumor
[15] = dose required to kill 50% of the tumor, read-out: EC50
[16] = dose required to kill 90% of the tumor, read-out: EC90

N.N.[Cl][Pt][Cl] [Cisplatin]
Killing at highest dose [1]: 1.00E+00 fraction of tumor population killed | AUC [1, 9]: 6.20E+01 | EC10 [1, 10]: 74.1 µM | EC25 [1, 11]: 87.1 µM | EC50 [1, 12]: 125 µM | EC75 [1, 13]: 188 µM | EC90 [1, 14]: 225 µM | Slope ([1]; slope through the EC50): -4.00E-03 | Killing at highest dose [2]: 1.00E+00 fraction of tumor population killed | AUC [2, 9]: 7.69E+01 | EC10 [2, 10]: 74.6 µM | EC25 [2, 11]: 81.3 µM | EC50 [2, 12]: 92.4 µM | EC75 [2, 13]: 136 µM | EC90 [2, 14]: 205 µM | Slope ([2]; slope through the EC50): -2.20E-03 | Killing at highest dose ([3]; U373 WT on OBSCs): 1.00E+00 fraction of tumor population killed | AUC ([3]; U373 WT on OBSCs, area under the dose-response curve, trapezoidal rule): 1.33E+01 | EC10 ([3]; U373 WT on OBSCs, dose required to kill 10% of the tumor): 20.3 µM | EC25 ([3]; U373 WT on OBSCs, dose required to kill 25% of the tumor): 28.4 µM | EC50 ([3]; U373 WT on OBSCs, dose required to kill 50% of the tumor): 41.9 µM | EC75 ([3]; U373 WT on OBSCs, dose required to kill 75% of the tumor): 65.2 µM | EC90 ([3]; U373 WT on OBSCs, dose required to kill 90% of the tumor): 87.9 µM | Slope ([3]; U373 WT on OBSCs, slope through the EC50): -1.85E-02 | DSS (drug sensitivity score) ([3]; U373 WT, scale -100 to +100, tumor kill relative to OBSC toxicity): 62 | Killing at highest dose [4]: 1.00E+00 fraction of tumor population killed | AUC [4, 9]: 1.56E+01 | EC10 [4, 10]: 33.2 µM | EC25 [4, 11]: 36.5 µM | EC50 [4, 12]: 42 µM | EC75 [4, 13]: 47.6 µM | EC90 [4, 14]: 114 µM | Slope ([4]; slope through the EC50): -4.53E-02 | Killing at highest dose [5]: 1.00E+00 fraction of tumor population killed | AUC [5, 9]: 1.76E-01 | EC10 [5, 10]: 0.0906 µM | EC25 [5, 11]: 0.226 µM | EC50 [5, 15]: 453 nM | EC75 [5, 13]: 2.74 µM | EC90 [5, 16]: 4.2 µM | Slope ([5]; slope through the EC50): -1.10E+00 | Killing at highest dose [6]: 9.99E-01 fraction of tumor population killed | AUC [6, 9]: 4.20E+00 | EC10 [6, 10]: 4.55 µM | EC25 [6, 11]: 11.6 µM | EC50 [6, 15]: 24.7 µM | EC75 [6, 13]: 37.9 µM | EC90 [6, 16]: 45.7 µM | Slope ([6]; slope through the EC50): -1.90E-02 | Killing at highest dose [7]: 1.00E+00 fraction of tumor population killed | AUC [7, 9]: 4.87E+00 | EC10 [7, 10]: 3.17 µM | EC25 [7, 11]: 7.94 µM | EC50 [7, 15]: 16.8 µM | EC75 [7, 13]: 27.3 µM | EC90 [7, 16]: 41.5 µM | Slope ([7]; slope through the EC50): -2.73E-02 | response / killing over the 7 cell lines [8]: robust response

From article PMC10313921, “A living ex vivo platform for functional, personalized brain cancer diagnosis” (Cell Reports Medicine, 2023)
